Experiment [1] concerns Fusarium sporotrichioides. As to the kind of experiment: Fungicidal activity against Fusarium sporotrichioides IMT 496 after 72 hrs. Format: functional. The note with it: IMT 496, 72 h.
Experiment [2] concerns Penicillium ochrochloron. As to the kind of experiment: Fungicidal activity against Penicillium ochrochloron ATCC 9112 after 72 hrs. Format: functional. The settings on record: ATCC 9112, 72 h.
The test system of experiment [3] is Aspergillus versicolor. As to the kind of experiment: Antifungal activity against Aspergillus versicolor ATCC 11730 after 72 hrs by serial dilution method. The format is functional. The settings on record: ATCC 11730, 72 h.
Experiment [4] relates to Penicillium ochrochloron. In words: Antifungal activity against Penicillium ochrochloron ATCC 9112 after 72 hrs by serial dilution method. Format: functional. The settings on record: ATCC 9112, 72 h.
The test system of experiment [5] is Aspergillus niger. As to the kind of experiment: Fungicidal activity against Aspergillus niger ATCC 6275 after 72 hrs. Format: functional. The note with it: ATCC 6275, 72 h.
In experiment [6] the test system is Escherichia coli. In words: Antibacterial activity against Escherichia coli ATCC 35210 after 24 hrs by microdilution method. Format: functional. The settings on record: ATCC 35210, 24 h.
Experiment [7] deals with Salmonella typhimurium. In words: Antibacterial activity against Salmonella Typhimurium ATCC 13311 after 24 hrs by microdilution method. The format is functional, Salmonella enterica subsp. enterica serovar Typhimurium. The note with it: Salmonella enterica, ATCC 13311, 24 h. Background: In broth dilution the organism is exposed to a series of concentrations in liquid medium.

Experiment [8] relates to Escherichia coli. As to the kind of experiment: Bactericidal activity against Escherichia coli ATCC 35210 after 24 hrs. The format is functional. The note with it: ATCC 35210, 24 h.
In experiment [9] the test system is Salmonella typhimurium. As to the kind of experiment: Bactericidal activity against Salmonella Typhimurium ATCC 13311 after 24 hrs. Format: functional, Salmonella enterica subsp. enterica serovar Typhimurium. The note with it: Salmonella enterica, ATCC 13311, 24 h.
Experiment [10] concerns Staphylococcus aureus. In words: Bactericidal activity against Staphylococcus aureus ATCC 6538 after 24 hrs. The note with it: ATCC 6538, 24 h. Format: functional.
Experiment [11] relates to Listeria monocytogenes. As to the kind of experiment: Antibacterial activity against Listeria monocytogenes NCTC 7973 after 24 hrs by microdilution method. The settings on record: NCTC 7973, 24 h. The format is functional.
The test system of experiment [12] is Aspergillus fumigatus. In words: Fungicidal activity against Aspergillus fumigatus plant isolate after 72 hrs. Format: functional.
The test system of experiment [13] is Micrococcus flavus. In words: Bactericidal activity against Micrococcus flavus ATCC 10240 after 24 hrs. Format: functional. The note with it: ATCC 10240, 24 h.
Experiment [14] concerns Trichoderma viride. As to the kind of experiment: Antifungal activity against Trichoderma viride IAM 5061 after 72 hrs by serial dilution method. The settings on record: IAM 5061, 72 h. Format: functional.
The subject of experiment [15] is Aspergillus niger. As to the kind of experiment: Antifungal activity against Aspergillus niger ATCC 6275 after 72 hrs by serial dilution method. Format: functional. The note with it: ATCC 6275, 72 h.
Experiment [16] concerns Enterococcus faecalis. As to the kind of experiment: Antibacterial activity against Enterococcus faecalis isolate obtained from human after 24 hrs by microdilution method. The format is functional.
For experiment [17], the system named is Talaromyces funiculosus. In words: Antifungal activity against Penicillium funiculosum ATCC 36839 after 72 hrs by serial dilution method. The settings on record: ATCC 36839, 72 h. The format is functional.
The test system of experiment [18] is Aspergillus fumigatus. In words: Antifungal activity against Aspergillus fumigatus plant isolate after 72 hrs by serial dilution method. The format is functional.
The test system of experiment [19] is Micrococcus flavus. As to the kind of experiment: Antibacterial activity against Micrococcus flavus ATCC 10240 after 24 hrs by microdilution method. Format: functional. The settings on record: ATCC 10240, 24 h.
Experiment [20] has as its system Aspergillus versicolor. In words: Fungicidal activity against Aspergillus versicolor ATCC 11730 after 72 hrs. The format is functional. The note with it: ATCC 11730, 72 h.
Experiment [21] concerns Aspergillus ochraceus. In words: Fungicidal activity against Aspergillus ochraceus ATCC 12066 after 72 hrs. Format: functional. The settings on record: ATCC 12066, 72 h.
Experiment [22] has as its system Pseudomonas aeruginosa. In words: Bactericidal activity against Pseudomonas aeruginosa ATCC 27853 after 24 hrs. The format is functional. The settings on record: ATCC 27853, 24 h.
The test system of experiment [23] is Bacillus cereus. In words: Antibacterial activity against Bacillus cereus clinical isolate after 24 hrs by microdilution method. Format: functional.
Experiment [24] deals with Trichoderma viride. In words: Fungicidal activity against Trichoderma viride IAM 5061 after 72 hrs. Format: functional. The settings on record: IAM 5061, 72 h.
Experiment [25] relates to Bacillus cereus. In words: Bactericidal activity against Bacillus cereus clinical isolate after 24 hrs. Format: functional.
The nature of experiment [26]: Antifungal activity against Fusarium sporotrichioides IMT 496 after 72 hrs by serial dilution method. Format: functional.
The subject of experiment [27] is Aspergillus ochraceus. As to the kind of experiment: Antifungal activity against Aspergillus ochraceus ATCC 12066 after 72 hrs by serial dilution method. The format is functional. The settings on record: ATCC 12066, 72 h.
Experiment [28] has as its system Enterococcus faecalis. As to the kind of experiment: Bactericidal activity against Enterococcus faecalis isolate obtained from human after 24 hrs. Format: functional.
For experiment [29], the system named is Talaromyces funiculosus. As to the kind of experiment: Fungicidal activity against Penicillium funiculosum ATCC 36839 after 72 hrs. The format is functional. The note with it: ATCC 36839, 72 h.
The test system of experiment [30] is Staphylococcus aureus. As to the kind of experiment: Antibacterial activity against Staphylococcus aureus ATCC 6538 after 24 hrs by microdilution method. The format is functional. The note with it: ATCC 6538, 24 h.
Experiment [31] deals with Listeria monocytogenes. As to the kind of experiment: Bactericidal activity against Listeria monocytogenes NCTC 7973 after 24 hrs. Format: functional. The note with it: NCTC 7973, 24 h.
Experiment [32] has as its system Pseudomonas aeruginosa. As to the kind of experiment: Antibacterial activity against Pseudomonas aeruginosa ATCC 27853 after 24 hrs by microdilution method. Format: functional. The settings on record: ATCC 27853, 24 h.

In brackets after ≈: the same amount, converted by molar mass.

Broadly, the MFC is the lowest tested concentration that kills the fungus rather than only halting it. For orientation: MIC means the lowest concentration that inhibits growth of the organism. As usually defined, the MBC is the lowest tested concentration that kills the bacteria rather than only halting them. High values mean less potent killing, low ones more potent killing. As for `CNc1nc(C)c(C(=O)/C=C/c2ccccc2OC)s1`, the minimum fungicidal concentration (MFC) amounted to 340 µM (≈ 98 µg/mL) in experiment [1]; 520 µM (≈ 150 µg/mL) in experiment [2]; 870 µM (≈ 251 µg/mL) in experiment [5]; 520 µM (≈ 150 µg/mL) in experiment [12]; 520 µM (≈ 150 µg/mL) in experiment [20]; 340 µM (≈ 98 µg/mL) in [21]. Further, the MFC came to 340 µM (≈ 98 µg/mL) in [24] and 690 µM (≈ 199 µg/mL) in [29]. The MIC in [3] was determined as 340 µM (≈ 98 µg/mL); in experiment [4], 340 µM (≈ 98 µg/mL); in [6], 260 µM (≈ 75.1 µg/mL); in [7], 347 µM (≈ 100 µg/mL); in experiment [11] it was 347 µM (≈ 100 µg/mL); in experiment [14] it was 170 µM (≈ 49 µg/mL). Moreover, the MIC in experiment [15] worked out at 340 µM (≈ 98 µg/mL); in experiment [16], 260 µM (≈ 75.1 µg/mL); in [17] it was 340 µM (≈ 98 µg/mL); in [18], 340 µM (≈ 98 µg/mL); in experiment [19], 260 µM (≈ 75.1 µg/mL); in experiment [23], 347 µM (≈ 100 µg/mL). Moreover, the MIC came to 170 µM (≈ 49 µg/mL) in [27], 347 µM (≈ 100 µg/mL) in experiment [30] and 295 µM (≈ 85.1 µg/mL) in [32]. Moreover, the MBC in [8] amounted to 347 µM (≈ 100 µg/mL); in experiment [9], 521 µM (≈ 150 µg/mL); in experiment [10], 347 µM (≈ 100 µg/mL); in experiment [13], 295 µM (≈ 85.1 µg/mL); in experiment [22], 347 µM (≈ 100 µg/mL); in [25], 347 µM (≈ 100 µg/mL). The MBC came out at 347 µM (≈ 100 µg/mL) in experiment [28] and 521 µM (≈ 150 µg/mL) in [31]. Moreover, in experiment [26], the MIC (10'-2 umol/ml) was determined as 17.
On to `CC(=O)N1CCN(c2ccc(OCC3COC(Cn4ccnc4)(c4ccc(Cl)cc4Cl)O3)cc2)CC1` (stereo unspecified) [KETOCONAZOLE], for which the MFC in [1] turned out to be 188 µM (≈ 99.9 µg/mL); in experiment [2], 47 µM (≈ 25 µg/mL); in [5] it was 470 µM (≈ 250 µg/mL); in [12], 94.2 µM (≈ 50.1 µg/mL); in experiment [20] it was 47 µM (≈ 25 µg/mL); in experiment [21], 94.2 µM (≈ 50.1 µg/mL). Besides, the figures for the MFC in experiment [24] and in experiment [29] were 188 µM (≈ 99.9 µg/mL) and 18.8 µM (≈ 9.99 µg/mL), respectively. Moreover, the MIC was found to be 18.8 µM (≈ 9.99 µg/mL) in experiment [3]; 18.8 µM (≈ 9.99 µg/mL) in experiment [4]; 94.2 µM (≈ 50.1 µg/mL) in experiment [14]; 282 µM (≈ 150 µg/mL) in [15]; 9.4 µM (≈ 5 µg/mL) in experiment [17]; 47 µM (≈ 25 µg/mL) in experiment [18]. Moreover, the MIC in experiment [27] was 47 µM (≈ 25 µg/mL). For the same molecule, the MIC (10'-2 umol/ml) in experiment [26] amounted to 9.42.
For the molecule `CN[C@@H]1[C@H](O[C@H]2[C@H](O[C@H]3[C@H](O)[C@@H](O)[C@H](N=C(N)N)[C@@H](O)[C@@H]3N=C(N)N)O[C@@H](C)[C@]2(O)C=O)O[C@@H](CO)[C@H](O)[C@H]1O` [STREPTOMYCIN], the MIC in experiment [6] stood at 8.6 µM (≈ 5 µg/mL); in [7], 2 µM (≈ 1.16 µg/mL); in experiment [11] it was 17.1 µM (≈ 9.95 µg/mL); in experiment [16], 4.3 µM (≈ 2.5 µg/mL); in [19], 2 µM (≈ 1.16 µg/mL); in [23], 2 µM (≈ 1.16 µg/mL). Also, the MIC in experiment [30] came out at 17.1 µM (≈ 9.95 µg/mL); in experiment [32], 2 µM (≈ 1.16 µg/mL). Further, the MBC in experiment [8] was 17.1 µM (≈ 9.95 µg/mL); in experiment [9], 4.3 µM (≈ 2.5 µg/mL); in experiment [10] it was 42.9 µM (≈ 24.9 µg/mL); in [13], 4.3 µM (≈ 2.5 µg/mL); in experiment [22] it was 4.3 µM (≈ 2.5 µg/mL); in [25], 4.3 µM (≈ 2.5 µg/mL). For the same molecule, the MBC in experiment [28] worked out at 8.6 µM (≈ 5 µg/mL); in [31] it was 43 µM (≈ 25 µg/mL).
Regarding `CNc1nc(C)c(C(=O)/C=C/c2cccc([N+](=O)[O-])c2)s1`, the MFC in experiment [1] was 660 µM (≈ 200 µg/mL); in [2], 496 µM (≈ 150 µg/mL); in experiment [5], 660 µM (≈ 200 µg/mL); in [12] it was 496 µM (≈ 150 µg/mL); in [20], 496 µM (≈ 150 µg/mL); in experiment [21], 496 µM (≈ 150 µg/mL). For the same molecule, the MFC was determined as 330 µM (≈ 100 µg/mL) in experiment [24] and 496 µM (≈ 150 µg/mL) in experiment [29]. For the same molecule, the MIC in [3] stood at 330 µM (≈ 100 µg/mL); in experiment [4] it was 330 µM (≈ 100 µg/mL); in experiment [6], 248 µM (≈ 75.1 µg/mL); in [7] it was 280 µM (≈ 85.1 µg/mL); in experiment [11], 330 µM (≈ 100 µg/mL); in experiment [14] it was 165 µM (≈ 50.1 µg/mL). The minimal inhibitory concentration (MIC) in experiment [15], in [16], in [17], in experiment [18], in experiment [19] and in [23] was 330 µM (≈ 100 µg/mL) each time. Moreover, the MIC in [27] stood at 330 µM (≈ 100 µg/mL); in [30], 330 µM (≈ 100 µg/mL); in [32], 280 µM (≈ 85.1 µg/mL). The MBC was determined as 330 µM (≈ 100 µg/mL) in experiment [8]; 330 µM (≈ 100 µg/mL) in [9]; 495 µM (≈ 150 µg/mL) in experiment [10]; 495 µM (≈ 150 µg/mL) in [13]; 330 µM (≈ 100 µg/mL) in experiment [22]; 330 µM (≈ 100 µg/mL) in experiment [25]. The MBC in experiment [28] stood at 330 µM (≈ 100 µg/mL); in experiment [31] it was 495 µM (≈ 150 µg/mL). In [26], this molecule showed an MIC (10'-2 umol/ml) of 33.

For the origin of these results see ChEMBL document CHEMBL1782000, “Thiazole-based chalcones as potent antimicrobial agents. Synthesis and biological evaluation” (2011).
